According to patent US5187160A, “Cephem compound” (Fujisawa Pharmaceutical Co., Ltd., priority 1989, dated 1993):
Where a name gives a salt, the structure may show the parent alone.

Tested on: P. aeruginosa 26
Test: In vitro antibacterial activity, two-fold agar-plate dilution method (MIC)
Format: cell-based
Conditions: Pseudomonas aeruginosa, heart infusion agar, 10^8 viable cells per ml, 37° C. for 20 hours, read-out: MIC (minimal inhibitory concentration)
Protocol: Now in order to show the utility of the object compound [I], the test data on MIC (minimal inhibitory concentration) of representative compound [I] of this invention is shown in the following.
In vitro antibacterial activity was determined by the two-fold agar-plate dilution method as described below.
One loopful of an overnight culture of each test strain in Trypticase-soy broth (10^8 viable cells per ml) was streaked on heart infusion agar (HI-agar) containing graded concentrations of representative test compound, and the minimal inhibitory concentration (MIC) was expressed in terms of μg/ml after incubation at 37° C. for 20 hours.

MIC: 1.56 µg/mL
Structure (SMILES): CCON=C(C(=O)NC1C(=O)N2C(C(=O)[O-])=C(C[n+]3ccc(N)n3CCO)CSC12)c1csc(N)n1 (stereo not drawn) [Example 2, Sulfuric acid salt of 7β-[2-(2-aminothiazol-4-yl)-2-ethoxyiminoacetamido]-3-[3-amino-2-(2-hydroxyethyl)-1-pyrazolio]methyl-3-cephem-4-carboxylate (syn isomer)]
